In patent publication US10982174B2, “Synergistic surfactant blends” (STEPAN COMPANY, priority 2012, dated 2021):

Key:
Type in all cases: physicochemical
[1] = Critical micelle concentration (CMC) and beta parameter (synergy)
Method: Synergy can also be evaluated with respect to a blend's beta parameter (β), which can be calculated from the measured critical micelle concentration. Suitable methods for calculating β have been described previously (see, e.g., U.S. Pat. No. 5,360,571, the teachings of which are incorporated herein by reference).
Conveniently, the critical micelle concentration of a blend is measured at dilute concentrations in deionized water with pH adjusted to be within the range of 6 to 7. Critical micelle concentration generally refers to the minimum concentration of surfactant (in mg/L) needed to support micelle formation. The measurement can be performed, for instance, using a Krüss K12 tensiometer at 25° C. Once the critical micelle concentration is measured, the value of β can be found from:
where X is the total mole fraction of Surfactant 1 in the mixed micelles; α is the mole fraction of Surfactant 1 in solution; C1, C2, and C12 are the critical micelle concentrations of Surfactant 1, Surfactant 2, and their mixture; and β is the interaction parameter.
A negative value of β indicates synergy, while a positive value of β indicates antagonism, and values close to zero indicate little or no synergy.
The critical micelle concentration (CMC) of a blend is measured at a diluted concentration in deionized water with pH adjusted to 6-7. The measurement is done at 25° C. using a Kruss K100 tensiometer. The synergy of the blends, indicated by the beta parameter, is calculated based on the CMC data using the equation, β=[In(αA12/XA1)]/(1−X)^2 in which α is the mole fraction of the anionic surfactant in solution, X is the mole fraction of the anionic surfactant in mixed micelles, A1 is the critical micelle concentration of the anionic surfactant, and A12 is the critical micelle concentration of the blend.

[2] = Appearance / solubility of surfactant blends, neat and diluted with deionized water; settings: SLS/Quat (molar) 0:1
Method: All of the surfactant blends tested are prepared at the designated molar ratios without any pH adjustment. Dilutions are made using deionized water to the desired actives level. Actives amounts are wt. % unless indicated otherwise. Appearances are reported at ambient temperature for samples prepared within the last 24 h.

[3] = Interfacial tension (IFT), pendant drop tensiometer, against light mineral oil; settings: individual surfactant, ambient temperature, in mN/m (unit assumed)
Method: Interfacial tension is measured by any suitable method. […] The expected IFT value for a blend is calculated based on ideal mixing (non-synergistic) using the active component in each blend. The equation used is: Expected IFT=X·IFTA+(1−X)·IFTB where X is the actives % of Component A, IFTA is the IFT of Component A, and IFTB is the IFT of Component B.
If the measured IFT for a blend is less than the expected IFT, the blend is synergistic; if the measured IFT for a blend is greater than the expected IFT, the blend is antagonistic.
Interfacial tension (IFT) of all the individual components and their blends is measured at a given % active against light mineral oil at ambient temperature using a Kruss DSA-20 pendent drop tensiometer.

[4] = deionized water, pH 6-7, 25° C.

Appearance 0.01% actives [2] | Appearance 0.2% actives [2] | Appearance concentrate [2] | SMILES | IFT (0.1% actives) [3] | other results
 |  |  | C=CCCCCCCCC(=O)OCC[N+](C)(C)C [C10-7, C10 DMEA Ester Quat] |  | Surface tension at CMC (mN/m) [1]: 41.1 mN/m; CMC (mg/L) [1, 4]: 342.6 mg/L; CMC (mol/L) [1, 4]: 0.000932 mol/L
clear | clear | solid | C=CCCCCCCCC(=O)NCCC[N+](C)(C)C [C10-18, C10 DMAPA Quat] |  | 
 |  |  | C=CCCCCCCCC(=O)OC(CCCCCCCC(=O)[O-])CS(=O)(=O)[O-].[Na+].[Na+] (centres unmarked) [C10-32, C10 UFA SLA] | 25.9 | 
 |  |  | C=CCCCCCCCC[N+](C)(C)C [C10-42, C10 Amine DMS Quat] | 42.0 | 
clear | clear | solid | CC/C=C/CCCCCCCC(=O)NCCC[N+](C)(C)C [C12-18] |  | 
